Results on one substance are retold here after patent publication EP2057188B1 (priority 2006, dated 2008).

Experiment [1] is classed as in vivo, C57BL/6 mice.
Experiment [2] is classed as in vivo, rats. Particulars: 100 pmol/kg/min infusion dose in rats.
Protocol: As described, fed, isoflurane anesthetized HSD male rats were intubated and cannulated via femoral artery and vein and allowed to stabilize for 1 hour. […] At t=0, an i.v. bolus of 5.7mmol/kg D-glucose was administered over 2 minutes. Samples for glucose measurement and insulin concentrations were taken at various time points before and after (0 to 90 minutes) glucose infusion.
Experiment [3] is described as follows: Glucose in rats (summary table). Format: in vivo. Particulars: summary of properties.
A short description of experiment [4]: Circulatory system effects in conscious rats by telemetry. Format: in vivo, Harlan Sprague Dawley rats.
The format of experiment [5] is in vivo, db/db mice. Particulars: Figure 4; GIP at a 10 fold higher dose.
Protocol: Peptide was injected IP at t=0 immediately following baseline sample into 2-hour fasted db/db mice.
The conditions of experiment [6]: at doses of 100µg; cited from earlier work.
In experiment [7] the target is cardiomyocyte Gs- and Gi-coupled receptors. In words: cAMP assay in neonatal cardiomyocytes. Format: cell-based, rat. (cAMP levels reflect the balance of adenylyl cyclase and phosphodiesterase activity.)
Protocol: Activation of cardiomyocyte Gs- and Gi-coupled receptors was determined as a measure of cAMP production.
Neonatal cardiomyocytes were isolated using a commercially available system. […] Sprague Dawley neonatal rats (1-2 days old) were decapitated and the beating heart dissected out into digestion buffer (Cellutron D1 buffer) to dissociate cells. […] The resuspended cells incubated in buffer (Cellutron D3 buffer) for sufficient time to allow optimal dispersion and minimize the need for pipetting to break up clumps. Cells released from the first 2 digestions were discarded since a significant portion of these is red blood cells. Resuspended cells were filtered and allowed to pre-plate for 1 hour on plastic in an incubator in NS media (Cellutron, NJ) in order to remove fibroblasts. After 1 hour of pre-plating, floating cells are removed and the flask rinsed with NS media. The floating cells and the cells in the rinse media were combined and counted. Residual red blood cells, which are smaller that the cardiac myocytes, were not counted.
At Day 1, the NS media was replaced with fresh NS media.
Dose response was determined.
For Gs assays the positive control was 10uM forskolin and negative control was buffer. For Gi assays the positive control was buffer and the negative control was 10uM forskolin.
Experiment [8] is classed as in vivo, NIH/Swiss mice. Particulars: summary of properties.
Protocol: In Figure 3A, bars represent mean ± sd, n=6-10. […] Gavage (1.5g/kg) was given at t=0. Sample was taken at t=30 min. […] In Figure 3B, points represent mean ± sem, n=8-15.
(§1) In Figure 13B bars represent mean +/- sd. Peptide was injected IP at t = -5 minutes into 4-hour fasted NIH/Swiss female mice. Gavage (1.5g/kg) was given at t = 0. […] In Figure 17 points represent mean +/- sem. […] Samples were taken at t=60, t=120 and t=180.
Experiment [9] is described as follows: Body composition in DIO mice. Format: in vivo, C57BL/6J mice. Particulars: summary of properties.
Description: An exemplary assay can be one that involves utilization of a diet-induced obese (DIO) mouse model for metabolic disease. […] During the study, the mice can continue to eat their high-fat diet. Water can be provided ad libitum throughout the study.
DIO mice can be implanted with subcutaneous (SC) intrascapular osmotic pumps to deliver either vehicle (50% dimethylsulfoxide (DMSO) in water) or a compound of the invention. […] Body weights and food intake can be measured over regular intervals throughout the study periods. Respiratory quotient (RQ, defined as CO2 production ÷ O2 consumption) and metabolic rate can be determined using whole-animal indirect calorimetry (Oxymax, Columbus Instruments, Columbus, OH). The mice can be euthanized by isoflurane overdose, and an index of adiposity (bilateral epididymal fat pad weight) measured. Moreover, prior to determination of epididymal weight, body composition (lean mass, fat mass) for each mouse can be analyzed using a Dual Energy X-ray Absorptiometry (DEXA) instrument per manufacturer's instructions (Lunar Piximus, GE Imaging System).
The format of experiment [10] is in vivo, NIH/Swiss mice. Particulars: mice; summary of properties.
Protocol: Gavage (1.5g/kg) was given at t=0. Sample was taken at t=30 min.
Experiment [11] in a line: Calcium lowering (GIP hybrids, Figure 23B). Particulars: summary of properties. The format is in vivo.
Protocol: as §1
Experiment [12] is described as follows: Gastric emptying (GIP hybrids, Figure 23A). Particulars: summary of properties. The format is in vivo.
Protocol: as §1
The mark [13] stands for this setting: 80 nmol/kg, remote intravenous dosing.

Turning to “YAEGTFISDYSIAMDKIHQQDFVNWLLAQKGKKNDWKHNITQ-OH [GIP]”, the “BWt (mDIO)” value in experiment [1] (DIO mice, summary of properties) was “not active”. Moreover, in experiment [1] (infused via osmotic pump for 2 weeks, high-fat diet), the “body weight change in diet-induced-obese mice” value is given as “no effect on body weight change”. In experiment [2], the “insulin levels prior to the glucose challenge” value is given as “significant rise in insulin levels” and the “insulinotropic response to an intravenous glucose challenge” value is on record as “significant enhancement of the insulinotropic response”. Further, the Glucose rats entry in experiment [3] is listed as “not active”. Moreover, in experiment [4] (setting [13]), the “dP/dt (inotropic effect)” value was “positive inotropic effect”, the heart rate result is reported as “chronotropic (heart rate elevating) effect” and the mean arterial pressure result is “no effect”. In experiment [4] (rat, summary of properties), the “Heart Rate (rat)” value was “increases” and the “MAP. (rat)” value was “not active”. Moreover, the “glucose lowering in a diabetic mouse model” value in experiment [5] is “modest and wanes over time”. Moreover, the acute food intake result (IP at t=0, consumed at t=30, 60, 120 min) is “did not acutely inhibit food intake”. Moreover, the “Food Intake” value (summary of properties) is on record as “not active”. Besides, the “inhibition of gastric emptying” value in experiment [6] was “weakly active or inactive”. In experiment [7] (cAMP production, experiment of Figures 18A/18B), the EC(50) was 9.1 nM. In experiment [7] (cardiomyocyte Gs-coupled receptor activation, three independent experiments), this substance gave an EC(50) of 15.6 nM. For the same substance, in experiment [8], the OGTT result is recorded as “decreases”. In addition, the “Body Comp (mDIO)” value in experiment [9] was “No effect on lean mass”. Also, in experiment [10], the Glucose mice result is listed as “weak”. In addition, the iCa result in experiment [11] is given as “not active”. The “Gastric Emptying” value in experiment [12] was “not active”.
